Laboratory results reported in patent US10409869B2, “(R)- and (S)-1-(3-(3-N,N-dimethylaminocarbonyl)phenoxyl-4-nitrophenyl)-1-ethyl-N,N'-bis (ethylene)phosphoramidate, compositions and methods for their use and preparation” (OBI Pharma, Inc., priority 2015, dated 2019).

Assays:
[1] = Body weight in monkeys, 2 mg/kg 30-min IV infusion; format: in vivo, Cynomolgus monkeys; conditions: Day 1, Mean
Method: (§1) TH 3423 and TH 3424 were tested in […] naïve monkeys (1 male and one female for each compound at 2 mg/kg) with 30-min intravenous infusion, TK sampling: on Day 1 and Day 15: 0.25, 0.5, 0.75, 1 and 2 hr post infusion initiation. Serum chemistry and hematology: pre-dose (Day 1), day 5, day 8 (pre-dose), day 15 (pre-dose), day 22 and day 28. Clinical observation: Daily during the study, total 35 days. Food consumption: Daily during the study, total 35 days. Bodyweight measurement: Twice weekly for five weeks.

[2] = Hematology in monkeys, 2 mg/kg 30-min IV infusion; format: in vivo, Cynomolgus monkeys
Method: as §1

Structure (SMILES): C[C@@H](OP(=O)(N1CC1)N1CC1)c1ccc([N+](=O)[O-])c(Oc2cccc(C(=O)N(C)C)c2)c1 (single isomer, unassigned) [TH3423]
- body weight [1]: 3.50
- % BASO ([2]; female, Day 1 (pre-dose)): 0.0%
- % EOS ([2]; female, Day 1 (pre-dose)): 2.3%
- % MONO ([2]; female, Day 1 (pre-dose)): 4.8%
- % NEUT ([2]; female, Day 1 (pre-dose)): 47.9%
- HCT ([2]; female, Day 1 (pre-dose)): 35%
- HGB ([2]; female, Day 1 (pre-dose)): 112 g/L
- LYM ([2]; female, Day 1 (pre-dose)): 45%
- MCH ([2]; female, Day 1 (pre-dose)): 24 pg
- MCHC ([2]; female, Day 1 (pre-dose)): 320 g/L
- MCV ([2]; female, Day 1 (pre-dose)): 74.9 fL
- MPV ([2]; female, Day 1 (pre-dose)): 10.6 fL
- PCT ([2]; female, Day 1 (pre-dose)): 0.338%
- PDW ([2]; female, Day 1 (pre-dose)): 14.8
- PLT ([2]; female, Day 1 (pre-dose)): 3.18e+11 L⁻¹
- RBC ([2]; female, Day 1 (pre-dose)): 4.67e+12 L⁻¹
- RDW-CV ([2]; female, Day 1 (pre-dose)): 11.8%
- RDW-SD ([2]; female, Day 1 (pre-dose)): 37.2 fL
- WBC ([2]; female, Day 1 (pre-dose)): 6.7e+09 L⁻¹
- abs_basos ([2]; female, Day 1 (pre-dose)): 0 L⁻¹
- abs_eos ([2]; female, Day 1 (pre-dose)): 1.5e+08 L⁻¹
- abs_lymphs ([2]; female, Day 1 (pre-dose)): 3.02e+09 L⁻¹
- abs_monos ([2]; female, Day 1 (pre-dose)): 3.2e+08 L⁻¹
- abs_neuts ([2]; female, Day 1 (pre-dose)): 3.21e+09 L⁻¹
- % BASO ([2]; female, Day 8 (pre-dose)): 0.20%
- % EOS ([2]; female, Day 8 (pre-dose)): 2.30%
- % MONO ([2]; female, Day 8 (pre-dose)): 0.00%
- % NEUT ([2]; female, Day 8 (pre-dose)): 61.90%
- HCT ([2]; female, Day 8 (pre-dose)): 39.80%
- HGB ([2]; female, Day 8 (pre-dose)): 128.00 g/L
- LYM ([2]; female, Day 8 (pre-dose)): 35.60%
- MCH ([2]; female, Day 8 (pre-dose)): 24.60 pg
- MCHC ([2]; female, Day 8 (pre-dose)): 322.00 g/L
- MCV ([2]; female, Day 8 (pre-dose)): 76.30 fL
- MPV ([2]; female, Day 8 (pre-dose)): 9.60 fL
- PCT ([2]; female, Day 8 (pre-dose)): 0.67%
- PDW ([2]; female, Day 8 (pre-dose)): 15.40
- PLT ([2]; female, Day 8 (pre-dose)): 6.99e+11 L⁻¹
- RBC ([2]; female, Day 8 (pre-dose)): 5.21e+12 L⁻¹
- RDW-CV ([2]; female, Day 8 (pre-dose)): 12.30%
- RDW-SD ([2]; female, Day 8 (pre-dose)): 39.50 fL
- WBC ([2]; female, Day 8 (pre-dose)): 1.035e+10 L⁻¹
- abs_basos ([2]; female, Day 8 (pre-dose)): 2e+07 L⁻¹
- abs_eos ([2]; female, Day 8 (pre-dose)): 2.5e+08 L⁻¹
- abs_lymphs ([2]; female, Day 8 (pre-dose)): 3.68e+09 L⁻¹
- abs_monos ([2]; female, Day 8 (pre-dose)): 0 L⁻¹
- abs_neuts ([2]; female, Day 8 (pre-dose)): 6.4e+09 L⁻¹
- % BASO ([2]; female, Day 15 (pre-dose)): 0.10%
- % EOS ([2]; female, Day 15 (pre-dose)): 2.70%
- % MONO ([2]; female, Day 15 (pre-dose)): 6.30%
- % NEUT ([2]; female, Day 15 (pre-dose)): 63.0%
- HCT ([2]; female, Day 15 (pre-dose)): 33.9%
- HGB ([2]; female, Day 15 (pre-dose)): 115 g/L
- LYM ([2]; female, Day 15 (pre-dose)): 27.90%
- MCH ([2]; female, Day 15 (pre-dose)): 24.0 pg
- MCHC ([2]; female, Day 15 (pre-dose)): 339 g/L
- MCV ([2]; female, Day 15 (pre-dose)): 70.6 fL
- MPV ([2]; female, Day 15 (pre-dose)): 8.70 fL
- PCT ([2]; female, Day 15 (pre-dose)): 0.46%
- PDW ([2]; female, Day 15 (pre-dose)): 15.10
- PLT ([2]; female, Day 15 (pre-dose)): 5.33e+11 L⁻¹
- RBC ([2]; female, Day 15 (pre-dose)): 4.8e+12 L⁻¹
- RDW-CV ([2]; female, Day 15 (pre-dose)): 10.9%
- RDW-SD ([2]; female, Day 15 (pre-dose)): 32.3 fL
- WBC ([2]; female, Day 15 (pre-dose)): 9.56e+09 L⁻¹
- abs_basos ([2]; female, Day 15 (pre-dose)): 1e+07 L⁻¹
- abs_eos ([2]; female, Day 15 (pre-dose)): 2.6e+08 L⁻¹
- abs_lymphs ([2]; female, Day 15 (pre-dose)): 2.67e+09 L⁻¹
- abs_monos ([2]; female, Day 15 (pre-dose)): 6e+08 L⁻¹
- abs_neuts ([2]; female, Day 15 (pre-dose)): 6.02e+09 L⁻¹
- % BASO ([2]; male, Day 1 (pre-dose)): 0.0%
- % EOS ([2]; male, Day 1 (pre-dose)): 2.4%
- % MONO ([2]; male, Day 1 (pre-dose)): 5.5%
- % NEUT ([2]; male, Day 1 (pre-dose)): 55.4%
- HCT ([2]; male, Day 1 (pre-dose)): 40.8%
- HGB ([2]; male, Day 1 (pre-dose)): 132 g/L
- LYM ([2]; male, Day 1 (pre-dose)): 36.7%
- MCH ([2]; male, Day 1 (pre-dose)): 25.4 pg
- MCHC ([2]; male, Day 1 (pre-dose)): 324 g/L
- MCV ([2]; male, Day 1 (pre-dose)): 78.3 fL
- MPV ([2]; male, Day 1 (pre-dose)): 10.2 fL
- PCT ([2]; male, Day 1 (pre-dose)): 0.365%
- PDW ([2]; male, Day 1 (pre-dose)): 15.1
- PLT ([2]; male, Day 1 (pre-dose)): 3.58e+11 L⁻¹
- RBC ([2]; male, Day 1 (pre-dose)): 5.2e+12 L⁻¹
- RDW-CV ([2]; male, Day 1 (pre-dose)): 11.6%
- RDW-SD ([2]; male, Day 1 (pre-dose)): 38.2 fL
- WBC ([2]; male, Day 1 (pre-dose)): 5.33e+09 L⁻¹
- abs_basos ([2]; male, Day 1 (pre-dose)): 0 L⁻¹
- abs_eos ([2]; male, Day 1 (pre-dose)): 1.3e+08 L⁻¹
- abs_lymphs ([2]; male, Day 1 (pre-dose)): 1.95e+09 L⁻¹
- abs_monos ([2]; male, Day 1 (pre-dose)): 2.9e+08 L⁻¹
- abs_neuts ([2]; male, Day 1 (pre-dose)): 2.96e+09 L⁻¹
- % BASO ([2]; male, Day 8 (pre-dose)): 0.7%
- % EOS ([2]; male, Day 8 (pre-dose)): 3.0%
- % MONO ([2]; male, Day 8 (pre-dose)): 0.0%
- % NEUT ([2]; male, Day 8 (pre-dose)): 80.9%
- HCT ([2]; male, Day 8 (pre-dose)): 44.70%
- HGB ([2]; male, Day 8 (pre-dose)): 146.00 g/L
- LYM ([2]; male, Day 8 (pre-dose)): 15.4%
- MCH ([2]; male, Day 8 (pre-dose)): 24.90 pg
- MCHC ([2]; male, Day 8 (pre-dose)): 327.00 g/L
- MCV ([2]; male, Day 8 (pre-dose)): 76.20 fL
- MPV ([2]; male, Day 8 (pre-dose)): 10.60 fL
- PCT ([2]; male, Day 8 (pre-dose)): 0.52%
- PDW ([2]; male, Day 8 (pre-dose)): 15.70
- PLT ([2]; male, Day 8 (pre-dose)): 4.9e+11 L⁻¹
- RBC ([2]; male, Day 8 (pre-dose)): 5.86e+12 L⁻¹
- RDW-CV ([2]; male, Day 8 (pre-dose)): 11.90%
- RDW-SD ([2]; male, Day 8 (pre-dose)): 38.00 fL
- WBC ([2]; male, Day 8 (pre-dose)): 1.166e+10 L⁻¹
- abs_basos ([2]; male, Day 8 (pre-dose)): 8e+07 L⁻¹
- abs_eos ([2]; male, Day 8 (pre-dose)): 3.5e+08 L⁻¹
- abs_lymphs ([2]; male, Day 8 (pre-dose)): 1.79e+09 L⁻¹
- abs_monos ([2]; male, Day 8 (pre-dose)): 0 L⁻¹
- abs_neuts ([2]; male, Day 8 (pre-dose)): 9.44e+09 L⁻¹
